The results in this text go back to PMC5374420, “In Search of Small Molecule Inhibitors Targeting the Flexible CK2 Subunit Interface” (Pharmaceuticals, 2017).

Where a SMILES comes first, the peptide text is derived from it. Bridges are numbered along the chain shown (N, C = ends).

The target in one assay is T1, CK2α–CK2β interaction (Homo sapiens, UniProt P68400).
T1 construct: made in house
Description: In vitro CK2α–CK2β interaction assay. It counts as binding. The settings on record: read-out: inhibition of subunit interaction. How it is done: Figure 4 Inhibitory activity of a TAT-Pc analogue in vitro. (A) CK2 holoenzyme (100 nM) was incubated in the presence of increasing concentrations of TAT-Pc 13 for 15 min at 4 °C. CK2 activity was then determined with CK2β-dependent or independent peptide substrates; (B) [^35S]-labeled CK2α was incubated with biotinylated MBP-CK2β immobilized on streptavidin coated plates (preformed complex) in the absence (1) or presence (2) of TAT-Pc 13. Alternatively, [^35S]-labeled CK2α was incubated with TAT-Pc 13 (3) or random TAT-Pc 13 (4) and then with immobilized biotinylated MBP-CK2β. After washing, the amount of [^35S]-labeled CK2α remaining in the complex was determined by radioactivity counting. Representative data shown from two independent experiments. Results are presented as mean ± s.d. of triplicates.
The CK2α–CK2β interaction assay involved competition between plate-bound biotinylated MBP–CK2β and various cyclic peptides for binding to [^35S] methionine-labelled CK2α. The assay was performed as previously described in [15].

Assay [1] addresses T2, CK2α/CK2β subunit interaction in MCF-10A cells (Homo sapiens, UniProt P68400).
T2 construct: endogenous in cells; host or cells: MCF-10A (WT)
As to the kind of experiment: In situ proximity ligation assay of CK2α and CK2β. It counts as cell-based. The note with it: 50 µM, 6 h, WT MCF-10A cells; positive control 4.8 ± 1.5 dots/cell. As to the method: Figure 7 Uptake and cellular effects of TAT-Pc 13. (A) kinetic of TAMRA-TAT-Pc 13 uptake in MCF-10A cells; (B) WT or CK2β-depleted MCF-10A cells were incubated with 50 µM TAT or TAT-Pc 13 for 8 h and the expression of CK2 subunits was evaluated by Western blot; (C) anti-CK2β immunoprecipitates were prepared from WT MCF-10A cells incubated with 50 µM TAT or TAT-Pc 13 for 2 h. Presence of CK2 subunits in the corresponding immunoprecipitates was determined by Western blot; (D) in situ proximity ligation images of MCF-10A cells incubated with 50 µM TAT (a,b,d) or TAT-Pc 13 (c) for 6 h. WT cells were incubated with CK2α antibody alone (a) or CK2α and CK2β antibodies (b,c). […]
PLA is an antibody-based method representing a reliable readout of molecular proximity of two antigens located on two distinct proteins. […] The fluorescent signal from each pair of PLA probes confirms a close proximity and not simply subcellular colocalization and can then be detected and quantified as fluorescent spots in microscopic images of the cells. […] No signal was detected in CK2β-depleted cells (panel d).
In situ PLAs were performed using a Duolink kit (Olink Bioscience, Uppsala, Sweden) according to the manufacturer’s instructions with some modifications. […] Images were observed using a Zeiss Apotome microscope and analyzed using a Zen Pro imaging software (Zeiss, Oberkochen, Germany). […]

The subject of a further assay is 786-0. As to the kind of experiment: Cell death of cancerous cell line. It counts as cell-based.

T1 sequence (P68400 whole entry): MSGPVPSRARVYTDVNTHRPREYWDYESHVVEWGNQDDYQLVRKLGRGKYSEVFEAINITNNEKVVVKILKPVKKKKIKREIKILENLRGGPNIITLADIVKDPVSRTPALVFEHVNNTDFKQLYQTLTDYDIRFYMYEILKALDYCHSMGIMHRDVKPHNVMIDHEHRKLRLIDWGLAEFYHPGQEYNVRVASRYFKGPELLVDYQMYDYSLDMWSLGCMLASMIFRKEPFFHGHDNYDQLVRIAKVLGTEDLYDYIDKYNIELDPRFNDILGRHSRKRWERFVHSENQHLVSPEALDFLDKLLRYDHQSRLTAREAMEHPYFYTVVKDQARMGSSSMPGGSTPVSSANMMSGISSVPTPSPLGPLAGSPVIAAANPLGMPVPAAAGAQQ
T2 sequence (P68400 whole entry): as above

For orientation: inhibition means the share of the control response that was lost under treatment. In the case of `CC[C@H](C)[C@@H]1NC(=O)[C@H](CCCCN)NC(=O)[C@H](Cc2ccccc2)NC(=O)CNC(=O)[C@H](Cc2ccc(O)cc2)NC(=O)[C@H](CC(C)C)NC(=O)[C@H](CCCNC(=N)N)NC(=O)CNC(=O)CNC(=O)[C@@H](NC(=O)[C@H](CCC(N)=O)NC(=O)[C@@H]2CCCN2C(=O)[C@@H]2CCCN2C(=O)[C@H](CCCNC(=N)N)NC(=O)[C@H](CCCNC(=N)N)NC(=O)[C@H](CCCNC(=N)N)NC(=O)[C@H](CCC(N)=O)NC(=O)[C@H](CCCNC(=N)N)NC(=O)[C@H](CCCNC(=N)N)NC(=O)[C@H](CCCCN)NC(=O)[C@H](CCCCN)NC(=O)[C@H](CCCNC(=N)N)NC(=O)CN)CCCCNC(=O)CNC(=O)CNC(=O)[C@H](Cc2c[nH]cn2)NC1=O` [TAT-Pc 13] (H-GRKKRRQRRRPPQKGGRLYGFKIHGG; lactam 14-C; N-terminus assumed), the inhibition at 50 µM on CK2α–CK2β interaction came out at 80%. The “number of CK2α/CK2β interaction dots” value in assay [1] is recorded as 2.2 ± 1.1 dots/cell. For the same molecule, in the assay with 786-0, the “induction of cell death” value is “induce cell death”.
